The values below come from US20020183305A1 (Schering Corporation, priority 2001, published 2002).

For this experiment, the system named is Hypercholesterolemic Golden Syrian hamsters. The experiment can be described thus: In vivo efficacy in cholesterol-fed hypercholesterolemic hamsters (plasma cholesterol, plasma triglyceride, hepatic cholesteryl ester).
The mark [1] stands for this setting: cholesterol-fed hamsters, versus Control, Table 1.

Procedure: Male Golden Syrian hamsters (Charles River Labs, Wilmington, MA) weighing between 100 and 125 g were fed Wayne rodent chow until study onset. At study onset (Day 1) animals were separated into groups (n=4-6/group) and fed chow supplemented with 0.5% by weight of cholesterol (Research Diets Inc., New Brunswick, NJ). The Control and Test compounds were administered once daily for 7 days, starting on Day 1 via oral gavage in 0.2 ml corn oil. Corn oil was used as the Control.
On Day 7, blood was collected into tubes containing ethylenediaminetetraacetic acid (EDTA), and plasma was prepared by low speed centrifugation at 40C. Liver samples (0.5 g) were taken for neutral lipid analyses.
Nonfasted plasma cholesterol levels were determined by a modification of the cholesterol oxidase method, in which the reagents were available in a kit form from Wako Pure Chemicals Industries, Ltd. (Osaka, Japan). […] Assays were carried out at 37° C. for 10 min, along with cholesterol standards (Sigma Chemical Co., St. Louis, Mo.) and the resultant red quinone pigment's absorbance was determined spectrophotometrically at 505 nm.
Samples of liver (0.5 g) were lipid extracted. Lipid extracts were dried under nitrogen into HPLC sample vials, resuspended in hexane and injected onto a Zorbax Sil (4.6×25 cm) silica column. […] Lipids were detected by absorbance at 206 nm and quantitated by computer integration (System Gold, Beckman) of elution profiles. […] Cholesteryl ester content of liver-derived samples was derived from a standard curve constructed using known amounts of cholesteryl oleate.

For `COc1ccc([C@@H]2[C@@H](CCCc3ccccc3)C(=O)N2c2ccc(OC)cc2)cc1` [Compound XII], under setting [1], the “effect on accumulation of hepatic cholesteryl esters (in words)” value is given as “reduced” and the “effect on plasma cholesterol levels (in words)” value is given as “reduced”. Besides, where the note is “male hamsters fed chow with 0.5% cholesterol, oral gavage in corn oil once daily for 7 days, liver Day 7, Compound XII 3 mg/kg/day, niacin 100 mg/kg/day”, the “Hepatic Cholesteryl Ester” value worked out at 12.75 ± 1.12 mg/g. In addition, the “Plasma Cholesterol” value (male hamsters fed chow with 0.5% cholesterol, oral gavage in corn oil once daily for 7 days, nonfasted plasma Day 7, Compound XII 3 mg/kg/day, niacin 100 mg/kg/day) was determined as 214 ± 13 mg/dL. The “Plasma Triglyceride” value (male hamsters fed chow with 0.5% cholesterol, oral gavage in corn oil once daily for 7 days, plasma Day 7, Compound XII 3 mg/kg/day, niacin 100 mg/kg/day) was determined as 200 ± 30 mg/dL.
